Test systems include serum SARS-green; serum London; serum 6 (individual 6); serum 37 (individual 37); serum SARS-yellow; serum 62 (individual 62); serum 2 (individual 2).
Format in all cases: binding, human
The subject of assay [1] is serum 1b (individual 1, late serum).
For assay [2], the system named is control serum LUMC (pooled serum of ten healthy hospital workers).
The subject of assay [3] is sera SARS-green, SARS-yellow, 1a, 1b, 2, 6, 37, 62 and London.
The subject of assay [4] is control serum Blood-bank (commercial negative donor pooled serum).
The subject of assay [5] is serum 1a (individual 1, early serum).

Take PPCYNFLKEQHCQKA: in [1], the “Binding of serum 1b to linear peptides of Orf14 of SARS-CoV TOR2” value (from here on “Binding of serum 1b”) was 0.2. Further, the “Binding of serum SARS-green to linear peptides of Orf14 of SARS-CoV TOR2” value (“Binding of serum SARS-green” below) in the assay with serum SARS-green is 0.1. Moreover, in the assay on serum London, the “Binding of serum London to linear peptides of Orf14 of SARS-CoV TOR2” value (shortened to “Binding of serum London”) was found to be 0.1. Besides, in [2], the “Control serum LUMC linear peptides” value was found to be 0.1 and the “Control serum LUMC looped peptides” value stood at 0.6. Further, the “Binding of serum 6 to linear peptides of Orf14 of SARS-CoV TOR2” value with serum 6 (individual 6) stood at 0.2. Also, in the assay on serum 37 (individual 37), the “Binding of serum 37 to linear peptides of Orf14 of SARS-CoV TOR2” value turned out to be 0.3. Further, the “Recognition of the peptide by sera of individuals infected by SARS-CoV, form recognized” value (“Recognition of the peptide” for short) in assay [3] is recorded as “recognized in looped form”. In addition, in the assay with serum SARS-yellow, the “Binding of serum SARS-yellow to linear peptides of Orf14 of SARS-CoV TOR2” value (shortened to “Binding of serum SARS-yellow”) came to 0.0. The “Binding of serum 62 to linear peptides of Orf14 of SARS-CoV TOR2” value in the assay on serum 62 (individual 62) was 0.2. Besides, the “Binding of serum 2 to linear peptides of Orf14 of SARS-CoV TOR2” value in the assay on serum 2 (individual 2) turned out to be 0.1. In assay [4], the “Control Serum Blood-Bank Looped peptides” value is on record as 0.8 and the “Control serum Blood-bank linear peptides” value is given as 0.2. Also, the “Binding of serum 1a to linear peptides of Orf14 of SARS-CoV TOR2” value (from here on “Binding of serum 1a”) in [5] is 0.3.
Take QHCQKASTQREAEAA: in assay [1], the “Binding of serum 1b” value is listed as 0.4. Also, the “Binding of serum SARS-green” value with serum SARS-green is given as 0.3. For the same sequence, in the assay on serum London, the “Binding of serum London” value came to 0.5. For the same sequence, in assay [2], the “Control serum LUMC linear peptides” value is listed as 0.4 and the “Control serum LUMC looped peptides” value was 1.2. Moreover, in the assay with serum 6 (individual 6), the “Binding of serum 6 to linear peptides of Orf14 of SARS-CoV TOR2” value worked out at 0.3. Also, the “Binding of serum 37 to linear peptides of Orf14 of SARS-CoV TOR2” value with serum 37 (individual 37) came to 0.5. Also, the “Recognition of the peptide” value in assay [3] is listed as “recognized in looped form”. Further, the “Binding of serum SARS-yellow” value in the assay on serum SARS-yellow is listed as 0.3. In the assay with serum 62 (individual 62), the “Binding of serum 62 to linear peptides of Orf14 of SARS-CoV TOR2” value was found to be 0.4. In addition, the “Binding of serum 2 to linear peptides of Orf14 of SARS-CoV TOR2” value in the assay with serum 2 (individual 2) is on record as 0.6. In assay [4], the “Control Serum Blood-Bank Looped peptides” value was found to be 1.1 and the “Control serum Blood-bank linear peptides” value was 0.4. The “Binding of serum 1a” value in assay [5] worked out at 0.4.
On to QKASTQREAEAAVKP, for which the “Binding of serum 1b” value in assay [1] was 0.3. Further, the “Binding of serum SARS-green” value in the assay with serum SARS-green turned out to be 0.1. Further, the “Binding of serum London” value in the assay on serum London is 0.3. Moreover, in assay [2], the “Control serum LUMC linear peptides” value is recorded as 0.3 and the “Control serum LUMC looped peptides” value was determined as 0.8. The “Binding of serum 6 to linear peptides of Orf14 of SARS-CoV TOR2” value with serum 6 (individual 6) was found to be 0.3. Besides, the “Binding of serum 37 to linear peptides of Orf14 of SARS-CoV TOR2” value in the assay with serum 37 (individual 37) is 0.4. The “Recognition of the peptide” value in assay [3] is recorded as “recognized in looped form”. The “Binding of serum SARS-yellow” value with serum SARS-yellow is on record as 0.1. The “Binding of serum 62 to linear peptides of Orf14 of SARS-CoV TOR2” value in the assay with serum 62 (individual 62) is listed as 0.3. Moreover, the “Binding of serum 2 to linear peptides of Orf14 of SARS-CoV TOR2” value in the assay on serum 2 (individual 2) was determined as 0.4. In addition, in [4], the “Control Serum Blood-Bank Looped peptides” value is reported as 0.7 and the “Control serum Blood-bank linear peptides” value was 0.3. Moreover, in assay [5], the “Binding of serum 1a” value was 0.4.
Consider STQREAEAAVKPLLA, for which the “Binding of serum 1b” value in assay [1] stood at 0.3. Also, in the assay with serum SARS-green, the “Binding of serum SARS-green” value is 0.4. Also, in the assay on serum London, the “Binding of serum London” value is 0.4. In [2], the “Control serum LUMC linear peptides” value amounted to 0.6 and the “Control serum LUMC looped peptides” value came to 1.2. Also, the “Binding of serum 6 to linear peptides of Orf14 of SARS-CoV TOR2” value with serum 6 (individual 6) is 0.5. In addition, the “Binding of serum 37 to linear peptides of Orf14 of SARS-CoV TOR2” value with serum 37 (individual 37) is given as 0.6. Besides, in [3], the “Recognition of the peptide” value was “recognized in looped form”. In addition, in the assay on serum SARS-yellow, the “Binding of serum SARS-yellow” value was found to be 0.5. Besides, in the assay with serum 62 (individual 62), the “Binding of serum 62 to linear peptides of Orf14 of SARS-CoV TOR2” value is recorded as 0.4. Besides, the “Binding of serum 2 to linear peptides of Orf14 of SARS-CoV TOR2” value in the assay on serum 2 (individual 2) stood at 0.5. Also, in assay [4], the “Control Serum Blood-Bank Looped peptides” value is 1.2 and the “Control serum Blood-bank linear peptides” value came to 0.6. Moreover, the “Binding of serum 1a” value in assay [5] amounted to 0.5.
